Measurements reported in ChEMBL document CHEMBL5154777, “Alternative approaches utilizing click chemistry to develop next-generation analogs of solithromycin” (2022).
≈ marks a conversion by molar mass, not a printed value.

Legend:
Type in all cases: functional
Staphylococcus aureus [1] = experiment: Antibacterial activity against methicillin-resistant Staphylococcus aureus ATCC 43300
Enterobacter cloacae = experiment: Antibacterial activity against Enterobacter cloacae ATCC 13047
Enterococcus faecium = experiment: Antibacterial activity against Enterococcus faecium NCTC 7171
Escherichia coli [2] = experiment: Antibacterial activity against Escherichia coli MG1655
Pseudomonas aeruginosa = experiment: Antibacterial activity against Pseudomonas aeruginosa HER 1018
Klebsiella pneumoniae = experiment: Antibacterial activity against Klebsiella pneumoniae BAA 2146
Acinetobacter baumannii = experiment: Antibacterial activity against Acinetobacter baumannii 2208 ATCC 19606
Staphylococcus aureus [3] = experiment: Antibacterial activity against Staphylococcus aureus UCN14
Staphylococcus aureus [4] = experiment: Antibacterial activity against Staphylococcus aureus UCN18
Escherichia coli [5] = experiment: Antibacterial activity against Escherichia coli SQ171 2058G
Escherichia coli [6] = experiment: Antibacterial activity against Escherichia coli DK
Escherichia coli [7] = experiment: Antibacterial activity against Escherichia coli SQ171
Staphylococcus aureus [8] = experiment: Antibacterial activity against Staphylococcus aureus UCN17
Staphylococcus aureus [9] = experiment: Antibacterial activity against Staphylococcus aureus ATCC 29213
Escherichia coli [10] = experiment: Antibacterial activity against Escherichia coli DK3535
Escherichia coli [11] = experiment: Antibacterial activity against Escherichia coli DK2058G

MIC (Staphylococcus aureus [3]) | MIC (Staphylococcus aureus [4]) | MIC (Escherichia coli [5]) | MIC (Escherichia coli [6]) | MIC (Escherichia coli [7]) | MIC (Staphylococcus aureus [8]) | MIC (Staphylococcus aureus [9]) | MIC (Escherichia coli [10]) | MIC (Escherichia coli [11]) | SMILES | MIC (Staphylococcus aureus [1]) | MIC (Enterobacter cloacae) | MIC (Enterococcus faecium) | MIC (Escherichia coli [2]) | MIC (Pseudomonas aeruginosa) | MIC (Klebsiella pneumoniae) | MIC (Acinetobacter baumannii)
 |  |  |  |  |  |  |  |  | [N-]=[N+]=NC[C@@H]1CN(c2ccc(N3CCOCC3)c(F)c2)C(=O)O1 | > 200 µM | > 200 µM | > 200 µM | > 200 µM | > 200 µM | > 200 µM | > 200 µM
 |  |  |  |  |  |  |  |  | [N-]=[N+]=NC[C@H]1CN(c2ccc(N3CCOCC3)c(F)c2)C(=O)O1 | > 200 µM | > 200 µM | > 200 µM | > 200 µM | > 200 µM | > 200 µM | > 200 µM
 |  |  |  |  |  |  |  |  | CC[C@H]1OC(=O)[C@@](C)(F)C(=O)[C@H](C)[C@@H](O[C@@H]2O[C@H](C)C[C@H](N(C)CCc3cn(C[C@@H]4CN(c5ccc(N6CCOCC6)c(F)c5)C(=O)O4)nn3)[C@H]2O)[C@](C)(OC)C[C@@H](C)C(=O)[C@H](C)C2N(CCCCn3cc(-c4cccc(N)c4)nn3)C(=O)O[C@@]21C (single isomer, unassigned) | 200 µM (≈ 241 µg/mL) | > 200 µM | > 200 µM | > 200 µM | > 200 µM | > 200 µM | > 200 µM
19 µM (≈ 15.8 µg/mL) | 9.6 µM (≈ 8.01 µg/mL) | > 38 µM | 2.4 µM (≈ 2 µg/mL) | > 38 µM | 9.6 µM (≈ 8.01 µg/mL) | < 0.075 µM | 2.4 µM (≈ 2 µg/mL) | 2.4 µM (≈ 2 µg/mL) | CC[C@H]1OC(=O)[C@@](C)(F)C(=O)[C@H](C)[C@@H](O[C@@H]2O[C@H](C)C[C@H](N(C)C)[C@H]2O)[C@](C)(OC)C[C@@H](C)C(=O)[C@H](C)C2N(C/C=C/Cn3cc(-c4cccs4)nn3)C(=O)O[C@@]21C (single isomer, unassigned) |  |  |  |  |  |  | 
> 130 µM | > 130 µM | > 31 µM | 3.9 µM (≈ 3.97 µg/mL) | > 31 µM | > 130 µM | 3.9 µM (≈ 3.97 µg/mL) | 7.9 µM (≈ 8.04 µg/mL) | 7.9 µM (≈ 8.04 µg/mL) | CC[C@H]1OC(=O)[C@@](C)(F)C(=O)[C@H](C)[C@@H](O[C@@H]2O[C@H](C)C[C@H](N(C)CCCn3cc(-c4cccnc4)nn3)[C@H]2O)[C@](C)(OC)C[C@@H](C)C(=O)[C@H](C)C2N(CCCCn3cc(-c4cccc(N)c4)nn3)C(=O)O[C@@]21C (single isomer, unassigned) |  |  |  |  |  |  | 
> 120 µM | > 120 µM | > 31 µM | 7.8 µM (≈ 8.04 µg/mL) | > 31 µM | > 120 µM | 1.9 µM (≈ 1.96 µg/mL) | 7.8 µM (≈ 8.04 µg/mL) | 7.8 µM (≈ 8.04 µg/mL) | CC[C@H]1OC(=O)[C@@](C)(F)C(=O)[C@H](C)[C@@H](O[C@@H]2O[C@H](C)C[C@H](N(C)CCCCn3cc(-c4cccnc4)nn3)[C@H]2O)[C@](C)(OC)C[C@@H](C)C(=O)[C@H](C)C2N(CCCCn3cc(-c4cccc(N)c4)nn3)C(=O)O[C@@]21C (single isomer, unassigned) |  |  |  |  |  |  | 
> 120 µM | > 120 µM | > 31 µM | 7.7 µM (≈ 8.05 µg/mL) | > 31 µM | > 120 µM | 0.96 µM (≈ 1 µg/mL) | 3.8 µM (≈ 3.97 µg/mL) | > 31 µM | CC[C@H]1OC(=O)[C@@](C)(F)C(=O)[C@H](C)[C@@H](O[C@@H]2O[C@H](C)C[C@H](N(C)CCCCn3cc(-c4cccc(N)c4)nn3)[C@H]2O)[C@](C)(OC)C[C@@H](C)C(=O)[C@H](C)C2N(CCCCn3cc(-c4cccc(N)c4)nn3)C(=O)O[C@@]21C (single isomer, unassigned) |  |  |  |  |  |  | 
> 130 µM | > 130 µM | > 31 µM | > 31 µM | > 31 µM | > 130 µM | 0.49 µM (≈ 0.498 µg/mL) | > 31 µM | > 31 µM | CC[C@H]1OC(=O)[C@@](C)(F)C(=O)[C@H](C)[C@@H](O[C@@H]2O[C@H](C)C[C@H](N(C)CCn3cc(-c4cccc(N)c4)nn3)[C@H]2O)[C@](C)(OC)C[C@@H](C)C(=O)[C@H](C)C2N(CCCCn3cc(-c4cccc(N)c4)nn3)C(=O)O[C@@]21C (single isomer, unassigned) |  |  |  |  |  |  | 
9.5 µM (≈ 8.02 µg/mL) | 4.7 µM (≈ 3.97 µg/mL) | > 38 µM | 2.4 µM (≈ 2.03 µg/mL) | > 38 µM | 9.5 µM (≈ 8.02 µg/mL) | < 0.074 µM | 2.4 µM (≈ 2.03 µg/mL) | 2.4 µM (≈ 2.03 µg/mL) | CC[C@H]1OC(=O)[C@@](C)(F)C(=O)[C@H](C)[C@@H](O[C@@H]2O[C@H](C)C[C@H](N(C)C)[C@H]2O)[C@](C)(OC)C[C@@H](C)C(=O)[C@H](C)C2N(C/C=C/Cn3cc(-c4cccc(O)c4)nn3)C(=O)O[C@@]21C (single isomer, unassigned) |  |  |  |  |  |  | 
 |  |  |  |  |  |  |  |  | CC[C@H]1OC(=O)[C@@](C)(F)C(=O)[C@H](C)[C@@H](O[C@@H]2O[C@H](C)C[C@H](N(C)CCc3cn(C[C@H]4CN(c5ccc(N6CCOCC6)c(F)c5)C(=O)O4)nn3)[C@H]2O)[C@](C)(OC)C[C@@H](C)C(=O)[C@H](C)C2N(CCCCn3cc(-c4cccc(N)c4)nn3)C(=O)O[C@@]21C (single isomer, unassigned) | 0.8 µM (≈ 0.964 µg/mL) | > 200 µM | 0.2 µM (≈ 0.241 µg/mL) | > 200 µM | > 200 µM | > 200 µM | > 200 µM
> 130 µM | > 130 µM | > 32 µM | > 32 µM | > 32 µM | > 130 µM | 0.25 µM (≈ 0.251 µg/mL) | > 32 µM | > 32 µM | CC[C@H]1OC(=O)[C@@](C)(F)C(=O)[C@H](C)[C@@H](O[C@@H]2O[C@H](C)C[C@H](N(C)CCn3cc(-c4cccnc4)nn3)[C@H]2O)[C@](C)(OC)C[C@@H](C)C(=O)[C@H](C)C2N(CCCCn3cc(-c4cccc(N)c4)nn3)C(=O)O[C@@]21C (single isomer, unassigned) |  |  |  |  |  |  | 
2.4 µM (≈ 2.02 µg/mL) | < 0.074 µM | > 38 µM | 2.4 µM (≈ 2.02 µg/mL) | > 38 µM | 0.15 µM (≈ 0.126 µg/mL) | < 0.074 µM | 2 µM (≈ 1.69 µg/mL) | 2.4 µM (≈ 2.02 µg/mL) | CC[C@H]1OC(=O)[C@@](C)(F)C(=O)[C@H](C)[C@@H](O[C@@H]2O[C@H](C)C[C@H](N(C)C)[C@H]2O)[C@](C)(OC)C[C@@H](C)C(=O)[C@H](C)C2N(C/C=C/Cn3cc(-c4cccc(N)c4)nn3)C(=O)O[C@@]21C (single isomer, unassigned) |  |  |  |  |  |  | 
> 170 µM | > 170 µM | > 42 µM | 0.66 µM (≈ 0.498 µg/mL) | > 42 µM | > 170 µM | 0.66 µM (≈ 0.498 µg/mL) | 11 µM (≈ 8.29 µg/mL) | 5.3 µM (≈ 4 µg/mL) | C=CCN(C)[C@H]1C[C@@H](C)O[C@@H](O[C@@H]2[C@@H](C)C(=O)[C@](C)(F)C(=O)O[C@H](CC)[C@@]3(C)OC(=O)N(CCCCN=[N+]=[N-])C3[C@@H](C)C(=O)[C@H](C)C[C@@]2(C)OC)[C@@H]1O (single isomer, unassigned) |  |  |  |  |  |  | 
> 120 µM | > 120 µM | > 31 µM | 3.9 µM (≈ 4.02 µg/mL) | > 31 µM | > 120 µM | 0.97 µM (≈ 1 µg/mL) | 3.9 µM (≈ 4.02 µg/mL) | 16 µM (≈ 16.5 µg/mL) | CC[C@H]1OC(=O)[C@@](C)(F)C(=O)[C@H](C)[C@@H](O[C@@H]2O[C@H](C)C[C@H](N(C)CCCn3cc(-c4cccc(N)c4)nn3)[C@H]2O)[C@](C)(OC)C[C@@H](C)C(=O)[C@H](C)C2N(CCCCn3cc(-c4cccc(N)c4)nn3)C(=O)O[C@@]21C (single isomer, unassigned) |  |  |  |  |  |  | 
> 150 µM | 150 µM (≈ 131 µg/mL) | > 37 µM | 2.3 µM (≈ 2 µg/mL) | > 37 µM | 150 µM (≈ 131 µg/mL) | 1.1 µM (≈ 0.958 µg/mL) | 4.6 µM (≈ 4.01 µg/mL) | 2.3 µM (≈ 2 µg/mL) | C=CCN(C)[C@H]1C[C@@H](C)O[C@@H](O[C@@H]2[C@@H](C)C(=O)[C@](C)(F)C(=O)O[C@H](CC)[C@@]3(C)OC(=O)N(CCCCn4cc(-c5cccc(N)c5)nn4)C3[C@@H](C)C(=O)[C@H](C)C[C@@]2(C)OC)[C@@H]1O (single isomer, unassigned) |  |  |  |  |  |  | 
